Experimental data: ChEMBL document CHEMBL5608170, “An insight into sustainable and green chemistry approaches for the synthesis of quinoline derivatives as anticancer agents” (Eur J Med Chem, 2024)
In brackets after ≈: the same amount, converted by molar mass. *1 amine or outer side, *2 acyl side, *3 side chain or, on linkers, in order; H or OH if unused. Where a SMILES comes first, the peptide text is derived from it. Bridges are numbered along the chain shown (N, C = ends). Roman numbers before positions name the chains, in order. [ ]: non-standard residue; d: D form. Actinocin(1to9) = Cc1c2oc3c(C)ccc(C(=O)[*:2])c3nc-2c(C(=O)[*:1])c(N)c1=O; NMeV = CN[C@H](C(=O)O)C(C)C; Sar = CNCC(=O)O

Assays:
HCT-116 = assay: Cytotoxicity against human HCT-116 cells assessed as reduction in cell viability incubated for 24 hrs by MTT assay; assay type: functional, cell-based; conditions: HCT-116, 24 h
MCF7 [1] = assay: Cytotoxicity against human MCF7 cells assessed as reduction in cell viability incubated for 24 hrs by MTT assay; assay type: functional, cell-based; conditions: MCF7, 24 h
A549 [2] = assay: Cytotoxicity against human A549 cells assessed as reduction in cell viability incubated for 24 hrs by MTT assay; assay type: functional, cell-based; conditions: A549, 24 h
HepG2 [3] = assay: Cytotoxicity against human HepG2 cells assessed as reduction in cell viability incubated for 24 hrs by MTT assay; assay type: functional, cell-based; conditions: HepG2, 24 h
[4] = Cytotoxicity against human HEp-2C cells assessed as reduction in cell viability incubated for 72 hrs by MTT assay; assay type: functional, cell-based; conditions: Hep2C
NCI-H460 = assay: Antiproliferative activity against human NCI-H460 cells assessed as reduction in cell viability by MTT assay; assay type: functional, cell-based
A549 [5] = assay: Antiproliferative activity against human A549 cells assessed as reduction in cell viability by MTT assay; assay type: functional, cell-based
MDA-MB-231 = assay: Cytotoxicity against human MDA-MB-231 cells assessed as reduction in cell viability incubated for 48 hrs by MTT assay; assay type: functional, cell-based; conditions: MDA-MB-231, 48 h
HepG2 [6] = assay: Cytotoxicity against human HepG2 cells assessed as reduction in cell growth by MTT assay; assay type: functional, cell-based
MCF7 [7] = assay: Cytotoxicity against human MCF7 cells assessed as reduction in cell growth by MTT assay; assay type: functional, cell-based
A549 [8] = assay: Cytotoxicity against human A549 cells assessed as reduction in cell growth by MTT assay; assay type: functional, cell-based
MCF7 [9] = assay: Anticancer activity against human MCF7 cells assessed as reduction in cell growth incubated for 48 hrs by MTT assay; assay type: functional, cell-based; conditions: MCF7, 48 h
HeLa [10] = assay: Anticancer activity against human HeLa cells assessed as reduction in cell growth incubated for 48 hrs by MTT assay; assay type: functional, cell-based
DU-145 = assay: Cytotoxicity against human DU-145 cells assessed as reduction in cell growth measured for 48 hrs by MTT assay; assay type: functional, cell-based; conditions: DU-145, 48 h
PC-3 = assay: Cytotoxicity against human PC-3 cells assessed as reduction in cell growth measured for 48 hrs by MTT assay; assay type: functional, cell-based; conditions: PC-3, 48 h
HCT 116 TP53(-/-) = assay: Antiproliferative activity against human HCT116-p53-null cells assessed as reduction in cell viability by MTT assay; assay type: functional, cell-based
HBL-100 = assay: Growth inhibition of human HBL-100 cells; assay type: functional
T47D = assay: Growth inhibition of human T47D cells; assay type: functional
WiDr = assay: Growth inhibition of human WiDr cells; assay type: functional
HeLa [11] = assay: Growth inhibition of human HeLa cells; assay type: functional
SW1573 = assay: Growth inhibition of human SW1573 cells; assay type: functional
A549 [12] = assay: Growth inhibition of human A549 cells; assay type: functional
MCF7 [13] = assay: Cytotoxicity against human MCF7 cells assessed as reduction in cell viability by MTT assay; assay type: functional, cell-based
A549 [14] = assay: Anticancer activity against human A549 cells assessed as reduction in cell growth incubated for 48 hrs by MTT assay; assay type: functional, cell-based; conditions: A549, 48 h
HeLa [15] = assay: Growth inhibition of human HeLa cells by SRB assay; assay type: functional
B16-F10 = assay: Cytotoxicity against mouse B16-F10 cells assessed as reduction in cell viability incubated for 48 hrs by MTT assay; assay type: functional, cell-based; conditions: B16-F10, 48 h
A549 [16] = assay: Cytotoxicity against human A549 cells assessed as reduction in cell viability incubated for 72 hrs by MTT assay; assay type: functional, cell-based; conditions: A549, 72 h
HT-29 = assay: Cytotoxicity against human HT-29 cells assessed as reduction in cell viability incubated for 72 hrs by MTT assay; assay type: functional, cell-based; conditions: HT-29, 72 h

Compound: N#CC1=C(N)Oc2c(cc(Cl)c3cccnc23)C1c1ccc(Br)cc1 (centres undefined)
- IC50 (HCT-116): 5.81 µg/mL (≈ 14.1 µM)
- IC50 (MCF7 [1]): 0.99 µg/mL (≈ 2.4 µM)
- IC50 (A549 [2]): 3.1 µg/mL (≈ 7.51 µM)
- IC50 (HepG2 [3]): 1.23 µg/mL (≈ 2.98 µM)

Compound: Clc1cccc(NCN2CCCc3ccccc32)c1
- IC50 [4]: 11.9 µM

Compound: COc1ccccc1Nc1nc2ccccc2c(Nc2ccccc2OC)c1[N+](=O)[O-]
- IC50 (NCI-H460): 5.4 µM
- IC50 (A549 [5]): 6.5 µM

Compound: COC1=C(N)C(=O)c2nc(-c3nc(C(=O)O)c(C)c(-c4ccc(OC)c(OC)c4O)c3N)ccc2C1=O [STREPTONIGRIN]
- IC50 (MDA-MB-231): 30.5 µM

Compound: N#CC1C(=S)N=C2C(=C1c1ccc(F)cc1)CCC/C2=C\c1ccc(F)cc1 (centres undefined)
- IC50 (HepG2 [6]): 11.2 µg/mL (≈ 28.8 µM)
- IC50 (MCF7 [7]): 13.1 µg/mL (≈ 33.7 µM)
- IC50 (A549 [8]): 28.4 µg/mL (≈ 72.9 µM)

Compound: COc1cccc(-n2nnc3c2-c2ccc4cccnc4c2OC3)c1
- IC50 (MCF7 [9]): 31.4 µM
- IC50 (HeLa [10]): 15.7 µM

Compound: Cc1ccc2ccc3c(c2n1)OC(N)=C(C#N)C3c1cccc(Cl)c1 (centres undefined)
- IC50 (MCF7 [1]): 5.79 µg/mL (≈ 16.6 µM)
- IC50 (HepG2 [3]): 3.01 µg/mL (≈ 8.65 µM)

Compound: O=C1N(c2ccc(Cl)cc2)c2[nH]c(=O)[nH]c(=O)c2C12c1ccccc1Nc1c2[nH]c(=O)[nH]c1=O (centres undefined)
- IC50 (DU-145): 16.5 µM
- IC50 (PC-3): 19.9 µM

Compound: N#CC1C(=S)N=C2C(=C1c1ccc(Cl)cc1)CCC/C2=C\c1ccc(Cl)cc1 (centres undefined)
- IC50 (HepG2 [6]): 2.86 µg/mL (≈ 6.76 µM)
- IC50 (MCF7 [7]): 3.17 µg/mL (≈ 7.49 µM)
- IC50 (A549 [8]): 25.5 µg/mL (≈ 60.3 µM)

Compound: COc1ccc(Nc2nc3ccccc3c(NCc3ccccc3Cl)c2[N+](=O)[O-])cc1
- IC50 (HCT 116 TP53(-/-)): 4.8 µM

Compound: COc1cc2nccc(Oc3ccc(NC(=O)C4(C(=O)Nc5ccc(F)cc5)CC4)cc3)c2cc1OC [CABOZANTINIB]
- GI50 (HBL-100): 17 µM
- GI50 (T47D): 16 µM
- GI50 (WiDr): 14 µM
- GI50 (HeLa [11]): 11 µM
- GI50 (SW1573): 6 µM
- GI50 (A549 [12]): 9.5 µM

Compound: COc1cc2c(Oc3ccc4[nH]c(C)cc4c3F)ccnc2cc1OCC1(N)CC1 [CATEQUENTINIB]
- IC50 (MDA-MB-231): 17 µM

Compound: COC(=O)c1c(C(F)(F)F)nc2c(c1-c1ccc(S(=O)(=O)c3ccccc3)cc1)C(=O)CC(C)(C)C2
- IC50 (MCF7 [13]): 2 nM

Compound: Cc1cc(C)cc(-n2nnc3c2-c2ccc4cccnc4c2OC3)c1
- IC50 (MCF7 [9]): 16.9 µM
- IC50 (A549 [14]): 32.5 µM
- IC50 (HeLa [10]): 11.4 µM

Compound: CC(=O)NC1=NN(C(C)=O)C(c2cc3cc(Cl)ccc3n3nnnc23)S1 (centres undefined)
- GI50 (HeLa [15]): < 100 nM

Compound: COc1cc2nccc(Oc3ccc(NC(=O)Nc4cc(C)on4)c(Cl)c3)c2cc1OC [TIVOZANIB]
- IC50 (B16-F10): 18.8 µM

Compound: COc1cc2nccc(Oc3ccc(NC(=O)NC4CC4)c(Cl)c3)c2cc1C(N)=O [LENVATINIB]
- GI50 (HBL-100): 10 µM
- GI50 (T47D): 10 µM
- GI50 (WiDr): 19 µM
- GI50 (HeLa [11]): 4 µM
- GI50 (SW1573): 8 µM
- GI50 (A549 [12]): 12 µM

Compound: COc1cc(/C=C2\OCc3nc4ccccc4c(C)c3C2=O)cc(OC)c1OC
- IC50 (A549 [16]): 3.68 µg/mL (≈ 9.4 µM)
- IC50 (HT-29): 6.69 µg/mL (≈ 17.1 µM)

Compound: O=[N+]([O-])c1c(Nc2ccc(F)c(Cl)c2)nc2ccccc2c1Nc1ccc(F)c(Cl)c1
- IC50 (HCT 116 TP53(-/-)): 5.1 µM

Compound: Cc1c2oc3c(C)ccc(C(=O)N[C@@H]4C(=O)N[C@H](C(C)C)C(=O)N5CCC[C@H]5C(=O)N(C)CC(=O)N(C)[C@@H](C(C)C)C(=O)O[C@@H]4C)c3nc-2c(C(=O)N[C@@H]2C(=O)N[C@H](C(C)C)C(=O)N3CCC[C@H]3C(=O)N(C)CC(=O)N(C)[C@@H](C(C)C)C(=O)O[C@@H]2C)c(N)c1=O [DACTINOMYCIN] (I: T[dV]P[Sar][NMeV] / II: T[dV]P[Sar][NMeV]; ester I:1-I:C, II:1-II:C; linker I:N-II:N via Actinocin(1to9))
- IC50 (B16-F10): 13.4 µM
